# ± gives the standard deviation of the reports.
row,Compound,glass transition temperature
1,*/C=C/C1CC(*)C(C#N)(CCCC)C1 (repeat unit),87.00 °C
2,*C[Si](*)(C)C (repeat unit),-90.00 °C
3,*CC(*)(CCCCC)C(=O)OC (repeat unit),53.00 °C
4,*CC(CCCCCC)O* (repeat unit),-67.00 °C
5,*Oc1cccc(NC(=O)c2ccc(P(=O)(c3ccccc3)c3ccc(C(=O)Nc4cccc(Oc5ccc(P(=O)(c6ccccc6)c6ccc(*)cc6)cc5)c4)cc3)cc2)c1 (repeat unit),235.00 °C
6,*Oc1ccc(/N=N/c2ccc(Cc3ccc(/N=N/c4ccc(OC(=O)c5ccc(C(*)=O)cc5)cc4)cc3[N+](=O)[O-])c([N+](=O)[O-])c2)cc1 (repeat unit),198.00 °C
7,*c1ccc(-c2nc3cc(C(=O)c4ccc5nc(-c6ccccc6)c(-c6ccc(-n7c(=O)c8cc9c(=O)n(*)c(=O)c9cc8c7=O)cc6)nc5c4)ccc3nc2-c2ccccc2)cc1 (repeat unit),240.00 °C
8,*C(=O)Nc1cc(NC(=O)c2cccc(*)n2)cc(-c2nnc(-c3ccccn3)o2)c1 (repeat unit),255.00 °C
9,*C(=O)c1ccc2c(c1)C(=O)N(c1ccc(Oc3ccc(C(=O)c4ccc(Oc5ccc(N6C(=O)c7ccc(*)cc7C6=O)cc5)cc4)cc3)cc1)C2=O (repeat unit),252.00 °C
10,*c1ccc(Oc2cccc(N3C(=O)c4ccc(Oc5ccc6c(c5)C(=O)N(*)C6=O)cc4C3=O)c2)cc1 (repeat unit),232.00 ± 18 °C
11,*O[Si](C)(C)O[Si](C)(C)O[Si](*)(c1c(F)c(F)c(F)c(F)c1F)c1c(F)c(F)c(F)c(F)c1F (repeat unit),-42.00 °C
12,*CC(*)C(=O)OCCCCCCSCC#N (repeat unit),-59.00 °C
13,*/C=C/c1cccc(/C=C/[Si](C)(C)c2cccc([Si](*)(C)C)c2)c1 (repeat unit),28.70 °C
14,*CCCCCOC(=O)Nc1ccc(C)c(NC(=O)O*)c1 (repeat unit),52.00 °C
15,*c1ccc(Oc2ccc(N3C(=O)c4ccc(Oc5c(Oc6ccc7c(c6)C(=O)N(*)C7=O)cc(C(C)(C)C)cc5C(C)(C)C)cc4C3=O)cc2)cc1 (repeat unit),228.00 °C
16,*CCCCCCCCOC(=O)c1cccc(C(=O)O*)c1 (repeat unit),-9.00 °C
17,*Oc1ccc(C(=O)c2ccc(Oc3ccc(C(=O)c4ccc(C(=O)c5ccc(*)cc5)cc4)cc3)cc2)cc1 (repeat unit),169.00 °C

row,Compound,glass transition temperature
1,*CC(*)c1cccc(F)c1 (repeat unit),86.00 °C
2,*CCN(*)C(=O)c1cc(F)cc(F)c1 (repeat unit),106.00 °C
3,*CC(*)C(=O)Oc1cccc(N(C)C)c1 (repeat unit),47.00 °C
4,*C(=O)OCCN(CCOC(=O)c1ccc2c(c1)C(=O)N(c1cccc(N3C(=O)c4ccc(*)cc4C3=O)c1)C2=O)c1ccc(/N=N/c2ccc(C)cc2)cc1 (repeat unit),171.00 °C
5,*c1ccc(Oc2ccccc2Oc2ccc(N3C(=O)c4ccc(-c5ccc6c(c5)C(=O)N(*)C6=O)cc4C3=O)cc2)cc1 (repeat unit),241.00 °C
6,*/C=C/C1CC(*)C(C#N)(CCC)C1 (repeat unit),108.00 °C
7,*c1ccc(Nc2nc(Nc3ccc(-c4nc5cc(-c6ccc7[nH]c(*)nc7c6)ccc5[nH]4)cc3)nc(N(c3ccccc3)c3ccccc3)n2)cc1 (repeat unit),329.00 °C
8,*c1ccc(Sc2ccc(Sc3ccc(Sc4ccc(-n5c(=O)c6cc7c(=O)n(*)c(=O)c7cc6c5=O)cc4)cc3)cc2)cc1 (repeat unit),234.1 °C
9,*/C=C/C1CC(*)C2C(=O)N(CCCCC)C(=O)C12 (repeat unit),99.00 °C
10,*CC(*)OC(C)CC (repeat unit) [Poly(vinyl sec-butyl ether) ],-22 ± 3 °C
11,*/C=C/C(C(=O)OCC)C(*)C(=O)OCC (repeat unit),6.00 °C
12,*c1ccc(C(=O)OCCCCCCOc2ccc(/C=C3\CCC/C(=C\c4ccc(OCCCCCCOC(=O)c5ccc(-c6nnc(*)o6)cc5)cc4)C3=O)cc2)cc1 (repeat unit),71.00 °C
13,*CCCOC(=O)c1ccc2cc(C(=O)O*)ccc2c1 (repeat unit),88.00 °C
14,*Oc1ccc(C2(c3ccc(Oc4ccc(C(=O)c5ccccc5)c(-c5cc(*)ccc5C(=O)c5ccccc5)c4)cc3)c3ccccc3-c3ccccc32)cc1 (repeat unit),215.00 °C
15,*Nc1cccc(NC(=O)CCCCCCC(*)=O)c1 (repeat unit),115.50 °C
16,*CC(*)(C)C(N)=O (repeat unit),88.70 °C
17,*CC(*)C(=O)OCC(F)(F)C(F)(F)OC(F)(F)C(F)(F)C(F)(F)C(F)(F)F (repeat unit),-68.00 °C

# The remaining lines, values ahead:
row,glass transition temperature,Compound
1,147.00 °C,*Oc1ccc(-c2ccc(Oc3ccc(Oc4ccc(Oc5ccc(*)cc5)cc4)cc3)c3ccccc23)c2ccccc12 (repeat unit)
2,321.00 °C,*c1ccc2c(c1)C(=O)N(c1ccc(N(c3ccc(C#N)cc3)c3ccc(N4C(=O)c5ccc(C(*)(C(F)(F)F)C(F)(F)F)cc5C4=O)cc3)cc1)C2=O (repeat unit)
3,202.00 °C,*c1ccc(Sc2ccc(Sc3ccc(Sc4ccc(S(*)(=O)=O)cc4S(=O)(=O)O)cc3)cc2)c(S(=O)(=O)O)c1 (repeat unit)
4,93.00 °C,*Oc1c(C)cc(C(C)(C)c2cc(C)c(OC(=O)CCCCC(*)=O)c(C)c2)cc1C (repeat unit)
5,155.00 °C,*Oc1ccc(/N=C(\c2ccccc2)c2ccc(Oc3ccc(C(C)(C)c4ccc(Oc5ccc(/C(=N/c6ccc(*)cc6)c6ccccc6)cc5)cc4)cc3)cc2)cc1 (repeat unit)
6,57.00 °C,*CC(*)c1cc(C(=O)OCCCCCCCC)ccc1-c1ccc(OCCCCCCCC)cc1 (repeat unit)
7,55.30 °C,*c1ccc(-c2sc(-c3cc(SCCCCCCCC)c(*)s3)cc2SCCCCCCCC)cc1 (repeat unit)
8,71.00 °C,*Oc1cccc(Oc2cccc(OC(*)=O)c2)c1 (repeat unit)
9,134.00 °C,*CC(*)C(=O)Oc1ccc(/N=N/c2ccc([N+](=O)[O-])cc2)cc1 (repeat unit)
10,98.00 °C,*CC(*)(C)C(=O)Oc1ccc(C(=O)Oc2ccc(C)cc2)cc1 (repeat unit)
11,325.00 °C,*c1c(C)cc(C)c(N2C(=O)c3cccc(Oc4c(C)cc(-c5cc(C)c(Oc6cccc7c6C(=O)N(*)C7=O)c(C)c5)cc4C)c3C2=O)c1C (repeat unit)
12,82.00 °C,*CCCCCC(=O)Oc1ccc(OC(=O)CCCCCn2c(=O)c3cc4c(=O)n(*)c(=O)c4cc3c2=O)c(-c2ccccc2)c1 (repeat unit)
13,214.00 °C,*Oc1ccc(C(=O)c2ccc(NC(=O)c3cccc(C(=O)Nc4ccc(C(=O)c5ccc(*)cc5)cc4)c3)cc2)cc1 (repeat unit)
14,273.50 °C,*c1ccc2c(c1)C(=O)N(c1cccc(C(=O)Nc3ccc(C(c4ccc(NC(=O)c5cccc(N6C(=O)c7ccc(C(*)(C(F)(F)F)C(F)(F)F)cc7C6=O)c5)cc4)(C(F)(F)F)C(F)(F)F)cc3)c1)C2=O (repeat unit)
